Patent US8273705B2, “Conversion of apoptotic proteins” (The Burnham Institute, priority 2002, dated 2012)
One block for each compound: values may come before it. d = 2'-deoxy (DNA); r = 2'-OH (RNA)

Assays:
293T cells = assay: DAPI apoptosis assay in 293T cells; format: cell-based, human; settings: 293T, transfected alone, 36 h, DAPI
Experimental: Apoptosis assays—For nuclear morphological change analysis, cells were trypsinized, washed with PBS, fixed with 3.7% paraformaldehyde, and stained with DAPI (4,6-diamidino-2-phenylindole) (50 μg/ml) to visualize the nuclei by UV-microscopy. The percentages of apoptotic cells were determined by counting 300 GFP-positive cells, scoring cells having nuclear fragmentation and/or chromatin condensation.
DAPI staining was used to study the apoptotic effect of TR3/Bcl-2 interaction. 293T cells were transfected with GFP-TR3/ΔDBD alone or together with Bcl-2. After 36 h, nuclei were stained by DAPI and nuclear fragmentation and chromatin condensation were identified. Cells were also stained with anti-Bcl-2 antibody, followed by TRITC-conjugated secondary antibody (Sigma). Bcl-2 and GFP-ΔDBD expression and nuclear morphology were visualized by fluorescence microscopy, and the two images were overlaid. […] But, when Bcl-2 was cotransfected, a significant amount of transfected cells underwent apoptosis. For example, approximately 4% of cells transfected with either TR3/ΔDBD or Bcl-2 were apoptotic, compared to 35% of cell transfected with both. […]
To characterize the pro-apoptotic mechanism of Bcl-2 in the setting of TR3-induced apoptosis, various TR3 mutants and Bcl-2 mutants were co-expressed in HEK293T cells. […] Cells displaying nuclear condensation or fragmentation were scored. […]

[1] = tested on: primary dopaminergic neurons; assay: TR3 localization in primary dopaminergic neurons; format: cell-based, rat; settings: 100 μM, one hour
Experimental: To further investigate TR3 targeting of mitochondria, rat primary neurons were treated with the dopaminergic neurotoxin 1-methyl-4-phenyl-1,2,3,6-tetrahydropyridine (MPTP). MPTP induces Parkinson's disease in animals. […] Neurons were identified by staining with neuron marker. TR3 and mitochondria (Hsp60) were visualized using confocal microscopy. […] TR3 was found only in the nucleus of non-treated neurons. Thus, TR3 mitochondrial localization plays a role in mediating the effect of dopaminergic neurotoxin in neurons.

[2] = tested on: peripheral blood lymphocytes (PBLs); assay: Apoptosis of peripheral blood lymphocytes; format: cell-based, human; settings: oligonucleotide transfected
Experimental: Isolation and transfection of human peripheral blood lymphocytes (PBLs)—Leukocyte-enriched buffy coats from San Diego Blood Bank were diluted with 2 volumes of PBS, and PBLs were isolated by centrifuge on Ficoll-paque™ Plus (Amersham Pharmacia biotech). The mononuclear cells were cultured in RPMI containing 10% FBS and 20 μM Hepes. Freshly isolated cells (10^7 cells per transfection) were washed once with PBS containing 0.5% BSA and supernatant was completely discarded so that no residual PBS/BSA covers the pellet. The cells were resuspended in 100 μl of the human T Cell Nucleofector™ solution (Amexa biosystems) and very gently mixed with 1-4 μg DNA in 5 μl. The cell suspension was transferred into a cuvette supplied by Amexa biosystems and electroporated using U-14 program of Nucleofector™ device. The cells were removed from the cuvette quickly by adding 500 μl of the pre-warmed RPMI medium containing 10% FBS and 20 μM Hepes and transferred into 12 well plates containing 1.5 ml of pre-warmed culture medium.

Bcl-XL = target: T1, Bcl-XL (Homo sapiens, UniProt Q07817); assay: TCTP/Bcl-XL interaction (yeast two-hybrid, immunoprecipitation in HEK293T); format: binding
T1 construct: expressed in transfected cells; host or cells: HEK293T
T1 sequence (Q07817 whole entry): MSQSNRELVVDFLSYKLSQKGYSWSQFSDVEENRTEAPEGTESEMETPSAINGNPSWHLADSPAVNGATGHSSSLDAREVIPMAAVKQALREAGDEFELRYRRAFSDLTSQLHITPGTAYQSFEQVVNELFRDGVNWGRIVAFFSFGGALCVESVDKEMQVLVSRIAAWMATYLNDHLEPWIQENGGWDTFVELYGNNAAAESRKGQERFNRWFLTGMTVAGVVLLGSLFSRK
From the text: Bcl-XL cDNA was constructed into the pGilda yeast two-hybrid vector. Using pGilda-Bcl-XL as bait, a human testis cDNA library was used in yeast two-hybrid screening to screen for potential Bcl-XL interacting proteins. pGilda-Bcl-XL and a reporter plasmid pSH18-34 were co-transfected into EGY48 yeast cells. The transfectant yeast cells were then transfected in large scale with yeast two-hybrid library cDNA plasmids. Positive clones were identified through selection in Leucine-deficient media. A total of 95 positive colonies were identified. These positive clones were further examined for a second reporter expression by β-gal filter assays. Among these clones, 29 of them tested positive. These clones were further examined by mating assays to confirm the interaction with Bcl-XL. Ten positive clones were isolated and sequenced to reveal their identity. Two of them encode cDNAs identical to human Translationally-Controlled Tumor Protein (TCTP).
TCTP is a calcium-binding protein with no previous identified role in apoptosis regulation. […] Cell lysates were immunoprecipitated with polyclonal anti-GFP antibody. The immunoprecipitates or the lysates were blotted with anti-HA or anti-GFP antibodies, respectively.

cos-7 cells [3] = assay: TCTP/Bcl-XL co-localization in cos-7 cells; format: cell-based; settings: cos-7, GFP-TCTP and RFP-Bcl-XL
From the text: Images were photographed with a confocal microscope.

cos-7 cells [4] = assay: TCTP-induced apoptosis (DAPI) in cos-7 cells; format: cell-based
Experimental: Cells were fixed and stained with DAPI 48 hours after transfection (n≧200 total cells evaluated) and the percentage of apoptotic cells was calculated (mean±SD, n=3) (FIG. 7).

H460 lung cancer cells = assay: TR3 induction and apoptosis in H460 lung cancer cells; format: cell-based
Experimental: (§1) In addition to TPA, AHPN and its structural analogs also induce TR3 expression and TR3-dependent apoptosis in an epithelial cancer cell line. […] Lysates were then incubated with anti-Bcl-2 antibody. Immunoblotting of immunoprecipitates was conducted using anti-TR3 and anti-Bcl-2 antibodies.
BH3-only proteins exert their apoptotic effects through either Bax or Bak. The involvement of Bax and Bak in Bcl-2-dependent apoptosis induced by TR3 was therefore examined.
To determine whether Bak, which was highly expressed in H460 cells, played a role in Bcl-2-dependent apoptosis induced by TR3, the effects of Bak siRNA transfection was examined. […] Thus, Bcl-2-dependent apoptosis induced by TR3 depends on multidomain pro-apoptotic Bcl-2-family proteins such as Bak.

[5] = tested on: MGC80-3 gastric cancer cells; assay: TR3 mitochondrial targeting in MGC80-3 gastric cancer cells; format: cell-based; settings: MGC80-3 cells treated with 3-Cl-AHPC
Experimental: C. Small interfering RNA (siRNA)—To complement these gene transfection experiments, a small interfering (si)RNA approach was used to determine the effect of suppressing endogenous Bcl-2 expression on TR3 mitochondrial targeting. […] After 48 h, lysates were prepared and assayed by immunoblotting using anti-Bcl-2 and anti-β-actin antibodies.

MGC80-3 cells = assay: TR3-dependent apoptosis in MGC80-3 cells with Bcl-2 siRNA; format: cell-based; settings: control GFP-siRNA-transfected MGC80-3 cells
Experimental: Bcl-2 siRNAs and antisense oligonucleotides—The target siRNA SMARTPOOLs® for Bcl-2 and Bak and the siRNA oligonucleotide for TR3 (5′-CAG UCC AGC CAU GCU CCU dTdT) (SEQ ID NO: 2) were purchased from Dharmacon Research Inc. Target or control siRNA were transfected at a final concentration of 200 nM into cells at 40% confluency using Oligofectamine reagent (Invitrogen) according to the manufacturer's recommendations. After 48 h, cells were analyzed. Bcl-2 antisense oligonucleotide targeting Bcl-2 and negative control oligonucleotides were obtained from Calbiochem. They (2.5 μM) were transfected into cells at 60% confluency for 36 h before analysis.
The effect of inhibiting endogenous Bcl-2 expression on the TR3-dependent apoptosis in MGC80-3 cells was next analyzed. […] However, 3-Cl-AHPC-induced apoptosis was suppressed by more than half (about 60%) in Bcl-2 siRNA-transfected cells. Similar results were obtained in H460 lung cancer cells. […] Thus, Bcl-2 can manifest a pro-apoptotic phenotype in settings where TR3 is expressed and targets to mitochondria.

TR3/Bcl-2 interaction = assay: Co-IP of TR3 and Bcl-2 in H460 lung cancer cells; format: cell-based; settings: 10^−6 M for 3 hours
Experimental: as §1

Compound: Bcl-2: Bcl-2 expression vector transfected into cells
apoptotic cells (293T cells): approximately 4%

Compound: CN1CC=C(c2ccccc2)CC1 [MPTP, 1-methyl-4-phenyl-1,2,3,6-tetrahydropyridine]
endogenous TR3 localization [1]: found exclusively in the cytoplasm and colocalized with mitochondria

Compound: 5′-CAG UCC AGC CAU GCU CCU dTdT (CAGUCCAGCCAUGCUCCUTT; siRNA; sugars from the 5' end r18 d2, backbone not given here) [TR3 siRNA, reference compound]
TPA/ionomycin-induced apoptosis of PBLs [2]: partially inhibited

interaction with Bcl-XL (Bcl-XL): interacts with Bcl-XL
Compound: TCTP: human Translationally-Controlled Tumor Protein
subcellular localization with Bcl-XL (cos-7 cells [3]): recruits TCTP from cytosolic location to the mitochondria
apoptosis (cos-7 cells [4]; expressed together with Bcl-XL versus without Bcl-XL, 48 hours): More apoptosis
apoptosis (cos-7 cells [4]; over-expressed in cells): induces apoptosis

Compound: O=C(O)/C=C/c1ccc(-c2ccc(O)c(C34CC5CC(CC(C5)C3)C4)c2)c(Cl)c1 [3-Cl-AHPC]
apoptosis (H460 lung cancer cells): extensive apoptosis
TR3 expression, mitochondrial targeting and apoptosis (H460 lung cancer cells; 10^−6 M for 3 hours): potently induces TR3 expression, mitochondrial targeting and apoptosis
endogenous TR3 localization [5]: targeted mitochondria
apoptosis (MGC80-3 cells): resulted in apoptosis
co-immunoprecipitation of TR3 with anti-Bcl-2 antibody (TR3/Bcl-2 interaction): demonstrated co-immunoprecipitation of TR3
